We go through five compounds from patent publication US20230143604A1, “QW DOSING OF GIP RECEPTOR AGONIST PEPTIDE COMPOUNDS AND USES THEREOF” (TAKEDA PHARMACEUTICAL COMPANY LIMITED, priority 2020, published 2023).

The nature of one series: physchem. The gist of the method: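 Solubility at pH 7.4 determined by stepwise addition of 200 mM phosphate buffer in 100 μL increments to 3 mg peptide, mixing briefly each time, until no insoluble material remained, then measured by liquid chromatography.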
The test system of the next series is Dogs. Format: in vivo. As to conditions: 10 nmol/kg s.c. The method, then: Dogs are transferred to an observation cage (700 mm W×700 mm D×700 mm H [W×D×H], without food) on 1 day before each apomorphine challenge. The dogs are weighed by using an electronic balance then test peptide compounds and vehicle will be administrated via the subcutaneous route. Apomorphine is challenged at 8 hr after the administration and emetic events will be monitored for 1 h by video recording. The second apomorphine challenge will be 72 hr after the administration and emetic events will be recorded by the same protocol. Emesis symptoms are continuously recorded using a video camera and stored on a blue ray disc. Observation of symptoms include retching (a rhythmic contraction of the abdomen) and vomiting (vomiting behavior, including the elimination of vomitus or similar behavior). Besides, the combination of retching and vomiting is defined as emesis, and the number of episodes, latency (time elapsed from morphine administration until the onset of the first emesis symptom), duration (time elapsed between the onset of the first and final episodes of emesis), and frequency (number of animals showing emesis/number of experimental animals) of each of these symptoms is calculated. The latency in cases where emesis symptoms are not noted is taken as the maximum value (1 h for apomorphine challenge) at the end of observation. When the duration of the emesis symptoms is less than 1 min, the duration is recorded, for convenience, as 1 min.

The next series deals with C57BL/6J mice. Nature of the series: Oral glucose tolerance test (OGTT). In kind it is in vivo. As to conditions: 3 nmol/kg s.c., 24 hours before glucose loading. In short, it runs like this:
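Peptide or vehicle given s.c. at 0.1, 0.3, 3 or 10 nmol/kg (peptide-dependent), 24 h before oral 50% dextrose at 5 ml/kg unless stated otherwise. Blood glucose read at 0, 15, 30 and 60 min. % inhibition = (1−(AUC cpd−AUC naïve)/(AUC veh−AUC naïve))×100.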

In a further series the target is T1, human GLP-1R (Homo sapiens, UniProt P43220).
T1 construct: HEK-293T cells overexpressing full-length human GLP-1R; FLAG (N); host or cells: HEK-293T
T1 sequence (P43220 24-463): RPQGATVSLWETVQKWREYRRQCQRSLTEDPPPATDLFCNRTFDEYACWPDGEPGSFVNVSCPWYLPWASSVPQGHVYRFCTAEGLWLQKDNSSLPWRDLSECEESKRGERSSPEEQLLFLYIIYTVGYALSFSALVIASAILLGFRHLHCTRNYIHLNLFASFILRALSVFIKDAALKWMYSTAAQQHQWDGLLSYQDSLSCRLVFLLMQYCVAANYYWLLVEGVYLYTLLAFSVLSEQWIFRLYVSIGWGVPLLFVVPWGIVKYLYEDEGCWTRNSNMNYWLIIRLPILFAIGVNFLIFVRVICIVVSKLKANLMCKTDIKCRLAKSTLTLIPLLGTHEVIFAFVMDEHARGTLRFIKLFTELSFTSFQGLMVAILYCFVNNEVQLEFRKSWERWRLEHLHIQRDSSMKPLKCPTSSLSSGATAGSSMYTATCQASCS
Nature of the series: Human GLP1R agonist activity, intracellular cAMP accumulation. Format: cell-based. As to conditions: HEK-293T cells overexpressing human GLP-1R, 1 hr. The gist of the method:
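cAMP accumulation is measured by HTRF after a 1 hr, room-temperature, dark exposure of thawed cells (4×10^5 cells/mL in Krebs Ringer buffer) to compound. Activity is scaled between DMSO alone as 0% and 1 nm GLP-1 as 100%.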
(Cyclic AMP is a second messenger, typically raised through Gs and lowered through Gi signalling.)

The target of another series is T2, human GIPR (Homo sapiens, UniProt P48546).
T2 construct: HEK-293T cells overexpressing full-length human GIPR; FLAG (N); host or cells: HEK-293T
T2 sequence (P48546 22-466): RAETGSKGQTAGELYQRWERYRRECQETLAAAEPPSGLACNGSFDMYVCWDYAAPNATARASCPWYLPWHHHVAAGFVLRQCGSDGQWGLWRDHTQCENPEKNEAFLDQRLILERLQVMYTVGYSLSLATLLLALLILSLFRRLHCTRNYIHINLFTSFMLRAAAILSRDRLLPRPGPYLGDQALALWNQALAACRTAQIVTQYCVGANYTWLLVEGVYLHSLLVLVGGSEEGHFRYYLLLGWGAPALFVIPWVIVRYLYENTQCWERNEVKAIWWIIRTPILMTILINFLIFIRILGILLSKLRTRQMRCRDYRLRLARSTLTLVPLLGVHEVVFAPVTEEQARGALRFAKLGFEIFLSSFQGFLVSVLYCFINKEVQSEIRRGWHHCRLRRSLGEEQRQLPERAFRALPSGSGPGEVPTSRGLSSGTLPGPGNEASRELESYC
Briefly: Human GIPR agonist activity, intracellular cAMP accumulation. Format: cell-based. The method, then: Cells are cultured per the manufacturer's protocol in DMEM with 10% fetal bovine serum and 1 μg/mL puromycin and stored in frozen aliquots to be used as assay ready cells. On the day of the assay, cells are removed from frozen storage, washed two times in 1× Kreb's Ringer Buffer (Zenbio, Research Triangle Park, N.C.), and re-suspended to a concentration of 4×10^5 cells/mL in 1× Kreb's Ringer Buffer. […] Cells are incubated with test compound for 1 hr at room temperature in the dark, and cAMP accumulation is measured using the Cisbio HiRange cAMP assay kit (Bedford, Mass.) per the manufacturer's protocol. Anti-cAMP antibody and d2-cAMP tracer reagents diluted in lysis/detection buffer are incubated in the dark for 1 hr, and results are measured on an Envision plate reader (Perkin Elmer, Waltham, Mass.). Data is normalized using 1 nM GIP as 100% activity, and DMSO alone as 0% activity.

[1] abbreviates: Human GLP1R cAMP EC50, HEK293T (nM).
The mark [2] stands for this setting: pH 7.4, aqueous buffer, pH 7.4 Phosphate Buffer - Solubility, 200 mM Phosphate buffer pH 7.4.
Where [3] appears, read: pH 7.4, solubility in phosphate buffer at pH 7.4, 200 mM phosphate buffer pH 7.4.
The mark [4] stands for this setting: read-out: Human GLP1R cAMP EC50, HEK293T.
[5] abbreviates: HEK-293T cells overexpressing human GIPR, cAMP accumulation, 1 hr, read-out: Human GIPR cAMP EC50, HEK293T.

Like-named read-outs stand apart in the source and are kept apart here. Positions of bridges follow the written chain, without caps; N, C: chain ends. Non-standard residues stand in square brackets, D forms with d. Chains are numbered I, II in the order given. *: point of attachment. C18 diacid = O=C(O)CCCCCCCCCCCCCCCCC(=O)*; NMeY = CN[C@@H](Cc1ccc(O)cc1)C(=O)O; Aib = CC(C)(N)C(=O)O

As a reminder, the solubility is the concentration that dissolves in the medium under given conditions. Read a high solubility as a readily soluble substance. As for `CC[C@H](C)[C@H](NC(=O)[C@H](CO)NC(=O)[C@H](Cc1ccc(O)cc1)NC(=O)[C@H](CC(=O)O)NC(=O)[C@H](CO)NC(=O)[C@@H](NC(=O)[C@H](Cc1ccccc1)NC(=O)[C@@H](NC(=O)CNC(=O)[C@H](CCC(=O)O)NC(=O)C(C)(C)NC(=O)[C@@H](N)Cc1ccc(O)cc1)[C@@H](C)O)[C@@H](C)CC)C(=O)N[C@@H](C)C(=O)N[C@@H](CCCCNC(=O)CNC(=O)CNC(=O)CNC(=O)CNC(=O)CNC(=O)CCCCCCCCCCCCCCCCC(=O)O)C(=O)N[C@@H](CC(=O)O)C(=O)N[C@@H](CCCNC(=N)N)C(=O)NC(C)(C)C(=O)N[C@@H](C)C(=O)N[C@@H](CCC(N)=O)C(=O)NC(C)(C)C(=O)N[C@@H](CC(=O)O)C(=O)N[C@@H](Cc1ccccc1)C(=O)N[C@H](C(=O)N[C@@H](CC(N)=O)C(=O)N[C@@H](Cc1c[nH]c2ccccc12)C(=O)N[C@@H](CC(C)C)C(=O)N[C@@H](CC(C)C)C(=O)N[C@@H](C)C(=O)N[C@@H](CCC(N)=O)C(=O)N[C@@H](CO)C(=O)N1CCC[C@H]1C(=O)NCC(=O)O)C(C)C` [Compound 128], the solubility in the series “physchem” (pH 7.4) is at least 15 mg/mL; in “physchem” (pH 7.4, aqueous buffer), at least 30 mg/mL. In addition, the “% inhibition of emetic events at doses (nmol/kg) shown in dog apomorphine model” value is 56% (10 nmol/kg) in the series on Dogs (after 8 hrs (upper)) and 60% (10 nmol/kg) in the series on Dogs (after 72 hours (lower)). The “Oral Glucose Tolerance Test Percent decrease in blood glucose AUC (%) over 60 mins” value in the series on C57BL/6J mice is recorded as 57% (3 nmol/kg).

As a reminder, the EC50 is the concentration needed to bring the measured effect to its halfway point. As for “I: H-[NMeY][Aib]EGTFISDYSIALDR[Aib]AQ[Aib]KFVNWLLAQSPSSGAPPPS-OH / II: {C18 diacid}-PAPAPGG (amide I:21-II:C) [Compound 103]”, the figures for the EC50 on human GLP-1R (setting [1]) and on human GIPR were 29.5 nM and 0.0017 nM, respectively. For the same compound, the solubility in “physchem” (setting [2]) is at least 60 mg/mL; in the series “physchem” (setting [3]), at least 15 mg/mL.

Regarding `CC[C@H](C)[C@H](NC(=O)[C@H](CO)NC(=O)[C@H](Cc1ccc(O)cc1)NC(=O)[C@H](CC(=O)O)NC(=O)[C@H](CO)NC(=O)[C@@H](NC(=O)[C@H](Cc1ccccc1)NC(=O)[C@@H](NC(=O)CNC(=O)[C@H](CCC(=O)O)NC(=O)C(C)(C)NC(=O)[C@H](Cc1ccc(O)cc1)NC)[C@@H](C)O)[C@@H](C)CC)C(=O)N[C@@H](C)C(=O)N[C@@H](CCCCNC(=O)CNC(=O)CNC(=O)CNC(=O)CNC(=O)CNC(=O)CCCCCCCCCCCCCCCCC(=O)O)C(=O)N[C@@H](CC(=O)O)C(=O)N[C@@H](CCCNC(=N)N)C(=O)NC(C)(C)C(=O)N[C@@H](C)C(=O)N[C@@H](CCC(N)=O)C(=O)NC(C)(C)C(=O)N[C@@H](CC(=O)O)C(=O)N[C@@H](Cc1ccccc1)C(=O)N[C@H](C(=O)N[C@@H](CC(N)=O)C(=O)N[C@@H](Cc1c[nH]c2ccccc12)C(=O)N[C@@H](CC(C)C)C(=O)N[C@@H](CC(C)C)C(=O)N[C@@H](C)C(=O)N[C@@H](CCC(N)=O)C(=O)N[C@@H](CO)C(=O)N1CCC[C@H]1C(=O)N[C@@H](CO)C(=O)N[C@@H](CO)C(=O)NCC(=O)O)C(C)C` [Compound 116], the EC50 was 110 nM at human GLP-1R (setting [4]) and 0.001 nM at human GIPR (setting [5]). Besides, the solubility in the series “physchem” (pH 7.4) is at least 15 mg/mL; in the series “physchem” (pH 7.4, aqueous buffer), at least 30 mg/mL.

`CC[C@H](C)[C@H](NC(=O)[C@H](Cc1ccccc1)NC(=O)[C@@H](NC(=O)CNC(=O)[C@H](CCC(=O)O)NC(=O)C(C)(C)NC(=O)[C@H](Cc1ccc(O)cc1)NC)[C@@H](C)O)C(=O)N[C@@H](CO)C(=O)N[C@@H](CC(=O)O)C(=O)N[C@@H](Cc1ccc(O)cc1)C(=O)N[C@@H](CO)C(=O)N[C@H](C(=O)NC(C)(C)C(=O)N[C@@H](CCCCNC(=O)CNC(=O)CNC(=O)CNC(=O)CNC(=O)CNC(=O)CCCCCCCCCCCCCCCCCCC(=O)O)C(=O)N[C@@H](CC(=O)O)C(=O)N[C@@H](CCCNC(=N)N)C(=O)NC(C)(C)C(=O)N[C@@H](C)C(=O)N[C@@H](CCC(N)=O)C(=O)NC(C)(C)C(=O)N[C@@H](CC(=O)O)C(=O)N[C@@H](Cc1ccccc1)C(=O)N[C@H](C(=O)N[C@@H](CC(N)=O)C(=O)N[C@@H](Cc1c[nH]c2ccccc12)C(=O)N[C@@H](CC(C)C)C(=O)N[C@@H](CC(C)C)C(=O)N[C@@H](C)C(=O)N[C@@H](CCC(N)=O)C(=O)N[C@@H](CCCNC(=N)N)C(=O)NCC(=O)O)C(C)C)[C@@H](C)CC` [Compound 67]: the EC50 at human GLP-1R (setting [4]) was found to be 33.9 nM; at human GIPR (setting [5]), 0.0013 nM. Further, the solubility in the series “physchem” (pH 7.4) is at least 15 mg/mL; in “physchem” (pH 7.4, aqueous buffer), at least 30 mg/mL.

As to `CC[C@H](C)[C@H](NC(=O)[C@H](CO)NC(=O)[C@H](Cc1ccc(O)cc1)NC(=O)[C@H](CC(=O)O)NC(=O)[C@H](CO)NC(=O)[C@@H](NC(=O)[C@H](Cc1ccccc1)NC(=O)[C@@H](NC(=O)CNC(=O)[C@H](CCC(=O)O)NC(=O)C(C)(C)NC(=O)[C@H](Cc1ccc(O)cc1)NC)[C@@H](C)O)[C@@H](C)CC)C(=O)N[C@@H](C)C(=O)N[C@@H](CCCCNC(=O)CNC(=O)CNC(=O)CNC(=O)CNC(=O)CNC(=O)CCCCCCCCCCCCCCCCC(=O)O)C(=O)N[C@@H](CC(=O)O)C(=O)N[C@@H](CCCNC(=N)N)C(=O)NC(C)(C)C(=O)N[C@@H](C)C(=O)N[C@@H](CCC(N)=O)C(=O)NC(C)(C)C(=O)N[C@@H](CC(=O)O)C(=O)N[C@@H](Cc1ccccc1)C(=O)N[C@H](C(=O)N[C@@H](CC(N)=O)C(=O)N[C@@H](Cc1c[nH]c2ccccc12)C(=O)N[C@@H](CC(C)C)C(=O)N[C@@H](CC(C)C)C(=O)N[C@@H](C)C(=O)N[C@@H](CCC(N)=O)C(=O)N[C@@H](CCCNC(=N)N)C(=O)N1CCC[C@H]1C(=O)N[C@@H](CO)C(=O)N[C@@H](CO)C(=O)NCC(=O)N[C@@H](C)C(=O)N1CCC[C@H]1C(=O)N1CCC[C@H]1C(=O)N1CCC[C@H]1C(=O)N[C@@H](CO)C(=O)O)C(C)C` [Compound 43], the results for the EC50 on human GLP-1R (setting [1]) and on human GIPR were 61.7 nM and 0.001 nM, respectively. The values for the solubility in the series “physchem” (setting [2]) and in the series “physchem” (setting [3]) were at least 30 mg/mL and at least 15 mg/mL, respectively. Moreover, the “Oral Glucose Tolerance Test Percent decrease in blood glucose AUC (%) over 60 mins” value in the series with C57BL/6J mice was 97% (3 nmol/kg).
